From patent US20140235630A1, “COMPOSITIONS AND METHODS FOR THE TREATMENT OF PROLIFERATIVE DISEASES” (Beth Israel Deaconess Medical Center, Inc., priority 2011, published 2014)

What was measured:
[1] = tested on: patient-derived tumor with BRCA1 germline mutation 2080delA; experiment: Patient-derived BRCA1 2080delA breast tumor xenograft growth; type: in vivo, human; conditions: untreated patient; Compound A 30 mg/kg/day, Compound B 50 mg/kg/day
From the text: FIGS. 6G and 6H are graphs showing the relative tumor volume (RTV) over time of tumors from breast cancer tissues from two patients, one with a 185delAG germline mutation (6G) and the other one with a 2080delA germline mutation (6H), propagated as subcutaneous implants in nude mice. Tumors were allowed to grow to a size of 5 mm when mice were randomized to treatments with either vehicle control (squares), Compound A (upside-down triangles), Compound B (triangles), or their combination (diamonds) (n=6 for each cohort, same dosing as in 6F).
All animal experiments were conducted in accordance with IACUC-approved protocols at Beth Israel Deaconess Medical Center, Boston, and at the University of Vall d'Hebron, Barcelona, Spain. […] The floxed or wild type status of Brca1, the presence of the MMTV-Cre transgene and the p53 heterozygosity were determined by PCR. […] When tumormetrics were performed, the length and width of the tumor was determined using calipers, and the tumor volume was determined (width^2×length/2). Tumor volume was used as a measure of growth and was recorded as ratio to tumor volume at diagnosis. Tumor doubling times were calculated using the functions of the best fit curves for all data points in each treatment modality. […]

[2] = tested on: HCC1937 and SUM149 cells; experiment: Immunoblotting of BRCA1-mutant breast cancer cell lines treated with drugs; type: cell-based, human; conditions: for overall poly-ADP-ribosylation (PAR): Compound B 10 μM; for activation status of EGFR/MAPK pathways: 72 hours treatment, immunoblot
From the text: The PI3K inhibitor 5-(2,6-dimorpholinopyrimidin-4-yl)-4-(trifluoromethyl)pyridin-2-amine (Compound A) was obtained through a Material Transfer Agreement with Novartis Pharmaceuticals. Olaparib (Compound B) was purchased from LC Laboratories (Woburn, Mass.) and KU-55933 was purchased from Selleck Chemicals (Houston, Tex.). BRCA1-mutant human breast cancer cell line HCC1937 was from American Type Culture Collection; # CRL-2336, and maintained in DMEM/10% FBS and SUM149 was from Division of Signal Transduction, BIDMC, maintained in Ham's F-12 with 5% fetal bovine serum (FBS), 5 μg/ml insulin, 2 μg/ml hydrocortisone, 5 μg/ml gentamicin and 2.5 μg/ml fungizone. Cell lines were authenticated by immunoblotting for BRCA1 and PTEN and tested for absence of mycoplasma.
Cells were treated with mock, 5-(2,6-dimorpholinopyrimidin-4-yl)-4-(trifluoromethyl)pyridin-2-amine (Compound A), 4-[[3-[4-(cyclopropanecarbonyl)piperazine-1-carbonyl]-4-fluorophenyl]methyl]-2H-phthalazin-1-one (Compound B), KU-55933, or the combination and lysed in cell lysis buffer (9803, Cell Signaling) as per the manufacturer's instructions. Immunoblots were performed using the Nupage System (Invitrogen). The protein concentration was determined using Bradford reagent (Biorad). A total of 20 μg of protein were loaded, except for PAR, Phospho ATM and Phospho DNA-PK/PRKDC western blots, where 40 μg were loaded. Tumor tissue lysates were prepared similarly with the exception of tissue homogenization by using an electric homogenizer for 30 secs after addition of the lysis buffer. Primary antibodies used for western blotting were total AKT (9272), Cleaved Caspace 3 (9661), total ERK (4695), Phospho AKT Ser473 (4058), Phospho ERK Thr202/Tyr204 (9106), Phospho-Histone H2AX Ser139 (2577), PTEN (9559) from Cell Signaling. Phospho ATM Ser1981 (2152-1), Phospho DNA-PK/PRKDC Ser2056 (3892-1) from Epitomics, Inc. CD31 (ab28364), Actin (ab6276), INPP4B (ab81269) from Abcam; pADPr (sc56198) from Santacruz Biotechnology; and Ki-67 (RM-9106) was purchased from Thermo Scientific.

SMILES | sensitivity of patient-derived tumor (relative tumor volume) [1] | cleaved caspase 3 (CC3), apoptosis marker ([2]; 24 hours) | overall poly-ADP-ribosylation (PAR) ([2]; 24 hours, Compound A 1 μM) | H2AX phosphorylation on Serine 139 (γH2AX) ([2]; 24 hours, Compound A 1 μM, Compound B 10 μM in combination) | activation status of EGFR/MAPK pathways [2] | phosphorylation of AKT ([2]; increasing concentrations, 24 hours)
Nc1cc(C(F)(F)F)c(-c2cc(N3CCOCC3)nc(N3CCOCC3)n2)cn1 [Compound A, 5-(2,6-dimorpholinopyrimidin-4-yl)-4-(trifluoromethyl)pyridin-2-amine] | exquisite sensitivity | remained negative | dose dependent increase | increased with increasing concentrations | induced a compensatory activation | diminishing phosphorylation
O=C(c1cc(Cc2n[nH]c(=O)c3ccccc23)ccc1F)N1CCN(C(=O)C2CC2)CC1 [Compound B, 4-[[3-[4-(cyclopropanecarbonyl)piperazine-1-carbonyl]-4-fluorophenyl]methyl]-2H-phthalazin-1-one, reference compound] | exquisite sensitivity |  | completely blocked |  | did not have a discernible effect | 
